Tested on: HEK293T cells carrying the ATF4 luciferase reporter
Assay: ATF4-Luc assay (in vitro model of VWMD)
Type: cell-based, human
Settings: Homo sapiens, HEK-293T, 1 μg/mL tunicamycin, 7 hours, One Glo luminescence
Method in brief: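 Tunicamycin (1 μg/mL) stress with co-added compound for 7 hours in HEK293T cells stably carrying an ATF4 5′-UTR–luciferase reporter. EC50 values come from the luminescent signal (One Glo).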

| SMILES | EC50 [nM] |
| --- | --- |
| O=C(NC12CCC(C(=O)N[C@H]3C[C@@H](OC(F)(F)F)C3)(CC1)OC2)[C@@H]1C[C@H](O)c2cc(Cl)ccc2O1 [Compound 206, (2S,4S)-6-chloro-4-hydroxy-N-(1-{[cis-3-(trifluoromethoxy)cyclobutyl]carbamoyl}-2-oxabicyclo[2.2.2]octan-4-yl)-3,4-dihydro-2H-1-benzopyran-2-carboxamide] | 500 to 2000 |
| O=C(N[C@H]1CC[C@H](N2CCN(c3ccc(Cl)c(F)c3)C2=O)CC1)[C@H]1C[C@@H](O)c2cc(Cl)ccc2O1 [Compound 207, (2R,4R)-6-chloro-N-{trans-4-[3-(4-chloro-3-fluorophenyl)-2-oxoimidazolidin-1-yl]cyclohexyl}-4-hydroxy-3,4-dihydro-2H-1-benzopyran-2-carboxamide] | < 10 |
| O=C(CO[C@H]1C[C@@H](OC(F)(F)F)C1)NC12CC(NC(=O)[C@@H]3C[C@@H](O)c4cc(Cl)ccc4O3)(C1)C2 [Compound 208, (2S,4R)-6-chloro-4-hydroxy-N-[3-(2-{[cis-3-(trifluoromethoxy)cyclobutyl]oxy}acetamido)bicyclo[1.1.1]pentan-1-yl]-3,4-dihydro-2H-1-benzopyran-2-carboxamide] | < 10 |
| O=C(NC12CC(n3cc(-c4ccc(Cl)cc4)cn3)(C1)C2)[C@H]1C[C@@H](O)c2cc(Cl)ccc2O1 [Compound 212, (2R,4R)-6-chloro-N-{3-[4-(4-chlorophenyl)-1H-pyrazol-1-yl]bicyclo[1.1.1]pentan-1-yl}-4-hydroxy-3,4-dihydro-2H-1-benzopyran-2-carboxamide] | < 10 |
| O=C(CO[C@H]1C[C@@H](OC(F)(F)F)C1)N[C@H]1CC[C@H](NC(=O)[C@H]2CC(=O)c3cc(Cl)ccc3O2)CC1 [Compound 213, (2R)-6-chloro-4-oxo-N-[trans-4-(2-{[cis-3-(trifluoromethoxy)cyclobutyl]oxy}acetamido)cyclohexyl]-3,4-dihydro-2H-1-benzopyran-2-carboxamide] | 50 to 250 |
| O=C(CO[C@H]1C[C@@H](OC(F)(F)F)C1)N[C@H]1CC[C@H](NC(=O)[C@H]2C[C@@H](O)c3cc(Cl)ccc3O2)CC1 [Compound 214, (2R,4R)-6-chloro-4-hydroxy-N-[trans-4-(2-{[cis-3-(trifluoromethoxy)cyclobutyl]oxy}acetamido)cyclohexyl]-3,4-dihydro-2H-1-benzopyran-2-carboxamide] | 10 to 50 |
| O=C(N[C@H]1CC[C@H](C(=O)N[C@H]2C[C@@H](OC(F)(F)F)C2)CC1)[C@H]1C[C@@H](O)c2cc(Cl)ccc2O1 [Compound 215, (2R,4R)-6-chloro-4-hydroxy-N-[trans-4-{[cis-3-(trifluoromethoxy)cyclobutyl]carbamoyl}cyclohexyl]-3,4-dihydro-2H-1-benzopyran-2-carboxamide] | < 10 |
| O=C1C[C@H](C(=O)NC23CC(C(=O)N[C@H]4C[C@@H](OC(F)(F)F)C4)(C2)C3)Oc2ccc(Cl)cc21 [Compound 216, (2R)-6-chloro-4-oxo-N-(3-{[cis-3-(trifluoromethoxy)cyclobutyl]carbamoyl}bicyclo[1.1.1]pentan-1-yl)-3,4-dihydro-2H-1-benzopyran-2-carboxamide] | > 2000 |
| O=C(NC12CC(c3nc([C@H]4C[C@@H](OC(F)(F)F)C4)no3)(C1)C2)[C@@H]1C[C@@H](O)c2cc(Cl)ccc2O1 [Compound 217, (2S,4R)-6-chloro-4-hydroxy-N-(3-{3-[cis-3-(trifluoromethoxy)cyclobutyl]-1,2,4-oxadiazol-5-yl}bicyclo[1.1.1]pentan-1-yl)-3,4-dihydro-2H-1-benzopyran-2-carboxamide] | 50 to 250 |
| O=C(NC12CC(c3nc([C@H]4C[C@@H](OC(F)(F)F)C4)no3)(C1)C2)[C@@H]1C[C@H](O)c2cc(Cl)ccc2O1 [Compound 218, (2S,4S)-6-chloro-4-hydroxy-N-(3-{3-[cis-3-(trifluoromethoxy)cyclobutyl]-1,2,4-oxadiazol-5-yl}bicyclo[1.1.1]pentan-1-yl)-3,4-dihydro-2H-1-benzopyran-2-carboxamide] | 500 to 2000 |
| O=C(CO[C@H]1C[C@@H](OC(F)(F)F)C1)NC12CCC(NC(=O)[C@H]3C[C@@H](O)c4cc(Cl)ccc4O3)(CC1)[C@@H](O)C2 [Compound 220, (2R,4R)-6-chloro-4-hydroxy-N-[(2S)-2-hydroxy-4-(2-{[cis-3-(trifluoromethoxy)cyclobutyl]oxy}acetamido)bicyclo[2.2.2]octan-1-yl]-3,4-dihydro-2H-1-benzopyran-2-carboxamide] | < 10 |
| O=C1C[C@H](C(=O)NC23CCC(C(=O)N[C@H]4C[C@@H](OC(F)(F)F)C4)(CC2)CC3)Oc2ccc(Cl)cc21 [Compound 221, (2R)-6-chloro-4-oxo-N-(4-{[cis-3-(trifluoromethoxy)cyclobutyl]carbamoyl}bicyclo[2.2.2]octan-1-yl)-3,4-dihydro-2H-1-benzopyran-2-carboxamide] | 50 to 250 |
| O=C(NC12CCC(C(=O)N[C@H]3C[C@@H](OC(F)(F)F)C3)(CC1)CC2)[C@H]1C[C@@H](O)c2cc(Cl)ccc2O1 [Compound 222, (2R,4R)-6-chloro-4-hydroxy-N-(4-{[cis-3-(trifluoromethoxy)cyclobutyl]carbamoyl}bicyclo[2.2.2]octan-1-yl)-3,4-dihydro-2H-1-benzopyran-2-carboxamide] | 10 to 50 |
| O=C(CO[C@H]1C[C@@H](OC(F)(F)F)C1)NC12CCC(NC(=O)[C@H]3CC(=O)c4cc(Cl)ccc4O3)(CC1)[C@@H](O)C2 [Compound 223, (2R)-6-chloro-N-[(2S)-2-hydroxy-4-(2-{[cis-3-(trifluoromethoxy)cyclobutyl]oxy}acetamido)bicyclo[2.2.2]octan-1-yl]-4-oxo-3,4-dihydro-2H-1-benzopyran-2-carboxamide] | 10 to 50 |
| O=C1C[C@H](C(=O)NC23CC(N4CCC(c5ccc(Cl)cc5)C4=O)(C2)C3)Oc2ccc(Cl)cc21 (stereo partly drawn) [Compound 224, (2R)-6-chloro-N-{3-[3-(4-chlorophenyl)-2-oxopyrrolidin-1-yl]bicyclo[1.1.1]pentan-1-yl}-4-oxo-3,4-dihydro-2H-1-benzopyran-2-carboxamide] | > 2000 |
| O=C(NC12CC(C3=NOC([C@H]4C[C@@H](O)C4)C3)(C1)C2)[C@H]1C[C@@H](O)c2cc(Cl)ccc2O1 (stereo partly drawn) [Compound 227, (2R,4R)-6-chloro-4-hydroxy-N-(3-{5-[cis-3-hydroxycyclobutyl]-4,5-dihydro-1,2-oxazol-3-yl}bicyclo[1.1.1]pentan-1-yl)-3,4-dihydro-2H-1-benzopyran-2-carboxamide] | > 2000 |
| O=C(NC12CC(C3=NOC([C@H]4C[C@@H](O)C4)C3)(C1)C2)[C@@H]1C[C@@H](O)c2cc(Cl)ccc2O1 (stereo partly drawn) [Compound 228, (2S,4R)-6-chloro-4-hydroxy-N-(3-{5-[cis-3-hydroxycyclobutyl]-4,5-dihydro-1,2-oxazol-3-yl}bicyclo[1.1.1]pentan-1-yl)-3,4-dihydro-2H-1-benzopyran-2-carboxamide] | > 2000 |
| O=C(NC12CC(c3nc([C@H]4C[C@@H](OC(F)(F)F)C4)no3)(C1)C2)[C@H]1C[C@@H](O)c2cc(Cl)ccc2O1 [Compound 229, (2R,4R)-6-chloro-4-hydroxy-N-(3-{3-[cis-3-(trifluoromethoxy)cyclobutyl]-1,2,4-oxadiazol-5-yl}bicyclo[1.1.1]pentan-1-yl)-3,4-dihydro-2H-1-benzopyran-2-carboxamide] | 10 to 50 |
| O=C(NC12CC(c3nc(-c4ccc(Cl)c(F)c4)no3)(C1)C2)[C@@H]1C[C@@H](O)c2cc(Cl)ccc2O1 [Compound 230, (2S,4R)-6-chloro-N-{3-[3-(4-chloro-3-fluorophenyl)-1,2,4-oxadiazol-5-yl]bicyclo[1.1.1]pentan-1-yl}-4-hydroxy-3,4-dihydro-2H-1-benzopyran-2-carboxamide] | 50 to 250 |
| O=C(NC12CC(n3cnc(-c4ccc(C(F)(F)F)nc4)c3)(C1)C2)[C@@H]1C[C@@H](O)c2cc(Cl)ccc2O1 [Compound 231, (2S,4R)-6-chloro-4-hydroxy-N-(3-{4-[6-(trifluoromethyl)pyridin-3-yl]-1H-imidazol-1-yl}bicyclo[1.1.1]pentan-1-yl)-3,4-dihydro-2H-1-benzopyran-2-carboxamide] | 10 to 50 |
| O=C(NC12CC(C3=NOC([C@H]4C[C@@H](OC(F)(F)F)C4)C3)(C1)C2)[C@H]1C[C@@H](O)c2cc(Cl)ccc2O1 (stereo partly drawn) [Compound 232, (2R,4R)-6-chloro-4-hydroxy-N-{3-(5-[cis-3-(trifluoromethoxy)cyclobutyl]-4,5-dihydro-1,2-oxazol-3-yl}bicyclo[1.1.1]pentan-1-yl)-3,4-dihydro-2H-1-benzopyran-2-carboxamide] | 50 to 250 |
| O=C(NC12CC(C3=NOC([C@H]4C[C@@H](OC(F)(F)F)C4)C3)(C1)C2)[C@@H]1C[C@@H](O)c2cc(Cl)ccc2O1 (stereo partly drawn) [Compound 233, (2S,4R)-6-chloro-4-hydroxy-N-(3-{5-[cis-3-(trifluoromethoxy)cyclobutyl]-4,5-dihydro-1,2-oxazol-3-yl}bicyclo[1.1.1]pentan-1-yl)-3,4-dihydro-2H-1-benzopyran-2-carboxamide] | 500 to 2000 |
| O=C(NC12CC(c3cc([C@H]4C[C@@H](OC(F)(F)F)C4)on3)(C1)C2)[C@H]1C[C@@H](O)c2cc(Cl)ccc2O1 [Compound 234, (2R,4R)-6-chloro-4-hydroxy-N-{3-(5-[cis-3-(trifluoromethoxy)cyclobutyl]-1,2-oxazol-3-yl}bicyclo[1.1.1]pentan-1-yl)-3,4-dihydro-2H-1-benzopyran-2-carboxamide] | 10 to 50 |
| O=C(NC12CC(n3ncc4cc(Cl)ccc43)(C1)C2)[C@H]1C[C@@H](O)c2cc(Cl)ccc2O1 [Compound 235, (2R,4R)-6-chloro-N-[3-(5-chloro-1H-indazol-1-yl)bicyclo[1.1.1]pentan-1-yl]-4-hydroxy-3,4-dihydro-2H-1-benzopyran-2-carboxamide] | 50 to 250 |
| O=C(NC12CC(n3cc(-c4ccc(Cl)cc4)cn3)(C1)C2)[C@@H]1C[C@@H](O)c2cc(Cl)ccc2O1 [Compound 236, (2S,4R)-6-chloro-N-{3-[4-(4-chlorophenyl)-1H-pyrazol-1-yl]bicyclo[1.1.1]pentan-1-yl}-4-hydroxy-3,4-dihydro-2H-1-benzopyran-2-carboxamide] | < 10 |

Source: patent publication US20200347043A1, “MODULATORS OF THE INTEGRATED STRESS PATHWAY” (Calico Life Sciences LLC, priority 2019, published 2020)
